Data published in BindingDB's records for doi:10.1021/jm970377o (Abbott Laboratories, 1998).

Test: Compound was evaluated for functional potency and efficacy at human muscle type Nicotinic acetylcholine receptor in TE671 cells

Work on `CC(=O)C1=CC[N+](C)(C)CC1` [4-Acetyl-1,1-dimethyl-1,2,3,6-tetrahydro-pyridinium; iodide] yielded an EC50 of 100 nM.
